Data set [1] addresses dipeptidyl peptidase IV (DPP IV) (Homo sapiens, UniProt P27487). The experiment in a line: Dipeptidyl peptidase IV activity inhibition test (human plasma, Gly-Pro-4-methylcoumaryl-7-amide). To be noted: room temperature, 2 hours, pH 7.8. The data set is classed as biochemical. Here is the method:
Experiment 1 [Dipeptidyl Peptidase IV Activity Inhibition Test]
Plasma including dipeptidyl peptidase IV was prepared by centrifugation of blood collected from healthy human volunteers. […] The fluorescence intensity at which the reaction time of the vehicle addition was 0 minute was regarded as a blank value, and the specific fluorescence intensity was calculated by subtracting the blank value from the determined value. The inhibition rate (%) of the dipeptidyl peptidase IV activity was calculated from the resulting specific fluorescence intensity according to the following formula. The dimethyl sulfoxide solution containing the test compound at high concentration of 1000-fold was prepared and diluted with the above-mentioned buffer solution for use.
Inhibition rate (%)=A/B×100
(A=fluorescence intensity of vehicle addition fluorescence intensity of the test compound addition)
(B=fluorescence intensity of the vehicle addition)

A short description of data set [2]: Concentration of test drug in blood by oral administration in rats (LC/MS/MS). To be noted: Wistar rats, oral 1 mg/kg; for concentration at 5 min / concentration at 10 min / concentration at 15 min / concentration at 30 min / concentration at 1 h / concentration at 2 h: male, rat, plasma, mean of 2 samples; for concentration at 5 min: 5 min. after administration; for concentration at 10 min: 10 min. after administration; for concentration at 15 min: 15 min. after administration; for concentration at 30 min: 30 min. after administration; for concentration at 1 h: 1 hour after administration; for concentration at 2 h: 2 hours after administration. The class given is in vivo. Here is the method: Experiment 2 [Concentration of Test Drug in Blood by Oral Administration in Rats]
Wistar rats, male (8 weeks old) were used after fasting from the day before the test.
At 5, 10, 15, 30 minutes, 1 and 2 hours after the administration, each 0.2 ml of blood was collected from the jugular vein and, after centrifugation, the resulting plasma was used as sample.
That is, 50 μl of the plasma was added to 200 μl of acetonitrile, stirred and, after centrifugation, the supernatant was injected to a liquid chromatography wherein CAPCEL PAK C18, UG120 5 μm (150 mm long, 2 mm diameter) was used as a column, a mixture of 10 mM aqueous ammonium acetate solution and 90% aqueous acetonitrile solution (1:9) was used as an eluent, Sciex API3000 LC/MS/MS System (Perkin Elmer Sciex) was used as a MS/MS condition, ESI was used as an ionization method, and cation, and SRM (precursor ion and daughter ion) was used for monitoring.

A further data set deals with Zucker fatty rats. The data set can be described thus: Oral glucose tolerance test (OGTT) in Zucker fatty rats. The class given is in vivo. Here is the method:
Experiment 3 [Effect of Dipeptidyl Peptidase IV Inhibitors on Oral Glucose Tolerance Test (OGTT) in Zucker Fatty Rats]
An OGTT in Zucker fatty rats was carried out referring to the method described in Diabetologia, 42, 1324-1331 (1999). In the test, male Zucker fatty rats, 10 weeks old (Charles River Japan, Inc.) were used after fasting for 16 hours. […] Before the begining of the test, blood was collected from the intraorbital vein using a heparin-treated tube for blood collection (manufactured by Drummond Scientific Co.). The test compounds were each dissolved in water for injection under Japanese Pharmacopoeia (manufactured by Hikari Pharmaceutical Co.) and orally administered in an amount of 2 ml/kg of the body weight. The same amount of water for injection under Japanese Pharmacopoeia only was administered to control group. […]
Plasma glucose levels of the frozen samples (mg/dl) were determined using Glucose CII test Wako (manufactured by Wako Fine Chemical Industry Co.), and the area under the curve (min·mg/dl) was calculated from the plasma glucose levels which were determined from the blood collected for 60 minutes after the glucose administration. […]

Structures can show the parent of a compound that is named as a salt.

dipeptidyl peptidase IV (DPP IV), sequence (P27487 39-766 limits assumed): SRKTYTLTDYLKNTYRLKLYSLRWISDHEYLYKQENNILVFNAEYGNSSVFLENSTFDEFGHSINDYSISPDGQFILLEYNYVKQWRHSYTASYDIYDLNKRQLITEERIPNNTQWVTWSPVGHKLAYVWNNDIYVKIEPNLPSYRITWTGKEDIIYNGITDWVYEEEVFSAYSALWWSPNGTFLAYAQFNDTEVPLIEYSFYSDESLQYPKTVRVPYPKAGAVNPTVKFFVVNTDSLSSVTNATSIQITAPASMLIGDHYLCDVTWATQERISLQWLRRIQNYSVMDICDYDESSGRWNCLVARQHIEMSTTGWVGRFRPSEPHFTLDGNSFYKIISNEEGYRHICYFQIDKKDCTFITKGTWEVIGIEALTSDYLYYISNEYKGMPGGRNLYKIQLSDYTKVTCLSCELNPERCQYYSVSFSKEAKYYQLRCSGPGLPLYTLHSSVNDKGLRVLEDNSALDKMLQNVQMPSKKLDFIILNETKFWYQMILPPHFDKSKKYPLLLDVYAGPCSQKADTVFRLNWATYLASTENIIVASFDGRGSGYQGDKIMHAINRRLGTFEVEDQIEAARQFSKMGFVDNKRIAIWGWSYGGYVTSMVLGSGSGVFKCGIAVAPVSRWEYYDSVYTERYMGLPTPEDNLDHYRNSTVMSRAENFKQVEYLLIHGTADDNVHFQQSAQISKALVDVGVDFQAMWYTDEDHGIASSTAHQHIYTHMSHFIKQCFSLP

One may read the IC50 as the point on the concentration scale where inhibition reaches its midpoint. In data set [1], `CC(C)(C)[C@H](N)C(=O)N1C[C@@H](F)C[C@H]1C#N` [Example 17, (2S,4S)-1-[(2S)-2-amino-3,3-dimethylbutanoyl]-2-cyano-4-fluoropyrrolidine Hydrochloride] registered an IC50 of 0.6 nM.

With `CC[C@H](C)[C@H](N)C(=O)N1C[C@@H](F)C[C@H]1C#N.Cl` [Example 1, (2S,4S)-1-[(2S,3S)-2-amino-3-methylpentanoyl]-2-cyano-4-fluoropyrrolidine Hydrochloride], in data set [2], the “concentration in plasma compared with Compound A (in words)” value is reported as “higher concentration in plasma than Compound A”, the concentration at 5 min worked out at 157 ng/mL, the concentration at 10 min turned out to be 372 ng/mL and the concentration at 15 min was found to be 348 ng/mL. In data set [2], this compound came in with a concentration at 30 min of 195 ng/mL, a concentration at 1 h of 24 ng/mL and a concentration at 2 h of 5 ng/mL. In data set [1], this compound returned an IC50 of 0.6 nM. Moreover, the “elevation of the plasma glucose level (in words)” value with Zucker fatty rats (OGTT, p<0.05) is on record as “inhibited significantly the elevation of the plasma glucose level”. For the same compound, in the data set with Zucker fatty rats (oral, glucose 1 g/kg 30 minutes after compound, 60 minutes after glucose administration), the “area under the curve of plasma glucose levels, mean ± S.E.” value is 13248 ± 619 mg·min/dL.

As for `CC(C)[C@H](N)C(=O)N1C[C@@H](F)C[C@H]1C#N` [Example 15, (2S,4S)-1-[(2S)-2-amino-3-methylbutanoyl]-2-cyano-4-fluoropyrrolidine Hydrochloride], the IC50 in data set [1] worked out at 0.7 nM.

In data set [2], `CC[C@H](C)[C@H](N)C(=O)N1CCC[C@H]1C#N` [Compound A, 1-[(2S,3S)-2-amino-3-methylpentanoyl]-2-(S)-cyanopyrrolidine trifluoroacetate, reference compound] displayed a concentration at 5 min of 122 ng/mL, a concentration at 10 min of 146 ng/mL, a concentration at 15 min of 113 ng/mL and a concentration at 30 min of 28 ng/mL. In data set [2], this compound registered a concentration at 1 h of 6 ng/mL and a concentration at 2 h of 2 ng/mL.

These data come from US20040072892A1, “Cyanopyrrolidine derivatives” (priority 2000, published 2004).
